Consider one compound from article PMC8249445, “Complex effects of macrolide venturicidins on bacterial F-ATPases likely contribute to their action as antibiotic adjuvants” (Scientific Reports, 2021).

Where two headings read alike, the source gives them in different places.

For assay [1], the target named is T1, E. coli membranes with FOF1 lacking the ε subunit's CTD (ε88-stop) (Escherichia coli, UniProt P68699).
T1 construct: To express haploid levels of EcFOF1 containing WT-ε or ε88-stop; expressed in transfected cells; host or cells: E. coli strain XH1 (chromosomal atpC deletion) carrying the ε88-stop version of pMBε1; inverted membrane vesicles
Kind of assay: ATP hydrolysis by ε88-stop E. coli membranes, enzyme-coupled spectrophotometric assay. The assay is classed as biochemical. The settings on record: for Ki: VentA at half-max. inhibition (Ki), early inhibition; for ATPase at saturating ventA (y0) / VentA-sensitive ATPase (y1): best fit of early rates. The text has this: We next investigated whether the ε-inhibited state of EcFOF1 also impacts interactions of ventA with the enzyme. The N-terminal domain (NTD) of ε is required for FOF1 assembly and functional coupling of F1 to FO in eukaryotic and bacterial species; the C-terminal domain (CTD) of ε can auto-inhibit FOF1 and isolated F1 from some bacteria and from chloroplasts, but the mitochondrial homolog (δ) is not inhibitory[39],[40]. Thus we measured the effects of ventA on ATPase activity of E. coli membranes expressing ε88-stop, which lacks the autoinhibitory εCTD (Fig. 3). From Table 1 (100% ATPase values), it is clear that selenite activates membrane ATPase more (fourfold) for ε88-stop than for WT (2.8-fold). This is because, without the inhibitory εCTD, more enzyme complexes shift to the MgADP-inhibited state, which can be activated by selenite. […] In contrast, early inhibition of ATPase by ventA has similar Ki values for WT and ε88-stop membranes in the absence (0.7 vs 0.5 μM) or in the presence of selenite (0.23 vs 0.09 μM).
Plasmid pXH302S, which encodes the WT atpC gene and expresses near haploid levels of the ε subunit, was subjected to fusion PCR mutagenesis to construct plasmid pMBε1, with an N-terminal affinity tag ([…]) added prior to the initial Met residue. To express the ε88-stop subunit, an AfeI-ScaI restriction fragment of WT pMBε1 was replaced by the analogous fragment from pH6ε88-stop[46]. To express haploid levels of EcFOF1 containing WT-ε or ε88-stop, the appropriate version of pMBε1 was transformed into E. coli strain XH1, which has a chromosomal deletion of the atpC gene for ε[54]. For these transformed strains, cultures were grown and inverted membrane vesicles (IMV) were prepared according to [55]. WT ε, with the same N-terminal His6-tag, was over-expressed from pH6ε and purified as described.
(§1) ATP hydrolysis by membrane vesicles was assayed spectrophotometrically[57] at 30 °C using an open-chamber, diode array spectrophotometer (Hewlett Packard 8453 UV–Vis) as described in[29]. The assay medium (1 ml per assay) contained 20 mM Mops/Tris, pH 8.0, 0.2 mM EDTA, 10 mM CH3COOK, 1 mM ATP, 3.2 mM Mg(CH3COO)2, 1 mM phosphoenolpyruvate, at least 0.3 mM NADH, 0.1 mg/ml pyruvate kinase, 0.1 mg/ml lactate dehydrogenase, 5 mM KCN, and 5 μM carbonyl cyanide 4-(trifluoromethoxy)-phenylhydrazone. As noted before, the rate of ATP hydrolysis by membranes increases to a small degree during assays. This is due, at least in part, to dissociation of a small fraction of EcF1 and/or ε from the membranes, since the increase is inhibited by added ε (e.g., Fig. 5). To avoid interference of this increase with the changes of ATPase activity induced by venturicidins, unless indicated otherwise, measurement of ATPase activities were started 60 min after addition of membranes to the complete assay medium. This minimizes further increases in ATPase rate during control assays to < 15%. To keep absorbance between 1.5 and 2 units after the 60-min preincubation, up to 0.2 mM additional NADH was added to the assay medium. In figures displaying activity traces, some traces are shifted vertically for visual clarity.

The target in assay [2] is T2, PaFOF1 in membranes from P. aeruginosa strain PAO1 (Pseudomonas aeruginosa, UniProt Q9HT15).
T2 construct: endogenous in cells; host or cells: P. aeruginosa strain PAO1, inverted membrane vesicles
Kind of assay: ATP hydrolysis by P. aeruginosa PAO1 membranes, enzyme-coupled spectrophotometric assay. The class given is biochemical. The following applies: 38.5 mM selenite. As for the experimental part: P. aeruginosa strain PAO1 was grown in LB medium at 37 °C as described. For preparation of IMV, final cultures used 1 L of LB per 2L baffled flask and were inoculated from an overnight culture at an initial OD600 ~ 0.025. Cultures were shaken at 250 rpm and monitored until they reached mid- to late-logarithmic growth phase (OD600, 1–1.4). Cultures were chilled and subsequent steps for cell lysis and isolation of IMV were done at 4 °C. Cells were sedimented by centrifugation (3,700 × g, 30 min). Cells from 1 to 2 L of culture (~ 2–3 g wet cells/L) were resuspended in 25–40 ml of STEM buffer (TEM buffer plus sucrose[55]), transferred to a 50 ml Oak Ridge tube, sedimented again (11,617 × g, 10 min), resuspended in 20–40 ml of STEM and frozen at -80 °C. Thawed cells were lysed by two sequential passages through an SLM-Aminco French pressure cell at ~ 16,000 psi, essentially as described for E. coli[55]; the pressure cell was enclosed in a clear biohazard bag (MiniGrip, IP2024B3T) during use to contain any aerosols formed. Unlysed cells and cell wall debris were removed by centrifugation (50 ml Oak Ridge tubes, 16,743 × g, 25 min): the supernate was diluted with MTGM7.5 buffer (50 mM MOPS-TRIS, 10%(v/v) glycerol, 5 mM Mg(CH3COO)2, pH 7.5) and centrifugation was repeated at least twice, recovering the supernate each time. The final supernatant lysate was stored at -80 °C. To isolate IMV, the cleared lysate was thawed quickly and diluted with MTGM7.5 as needed to fill 1 or 2 polycarbonate tubes for use in a Beckman Ti70 rotor. The IMV (membranes) were sedimented by ultracentrifugation (250,000 × g max) for 1 h, the membranes were resuspended in MTGM7.5 buffer to fill one Ti70 tube and ultracentrifugation was repeated for 45 min. The membranes were resuspended in a small volume of MTGM7.5 buffer (typically ≥ 10 mg membrane protein/ml) and homogenized manually (Potter–Elvehjem type). Small aliquots of the final membrane sample were quick-frozen in liquid nitrogen and stored at − 80 °C.
as §1

For assay [3], the system named is S. aureus (MRSA) strains. The settings on record: cited from earlier work.
The subject of assay [4] is E. coli. Also on record: method as in PMID 32424122. The settings on record: complex growth medium; cited from earlier work.
Assay [5] has as its system mitoFOF1. Also on record: method as in PMID 124668. The settings on record: cited from earlier work.
Setting [6] is: ε88stop + 38.5 mM selenite (Fig. 3B).

By Ki is commonly meant a dissociation constant, usually derived from enzyme kinetics or from competition with a known ligand.

With `CCC(=O)C(C)C(O)C(C)CC(C)C1OC(=O)CC2(O)CC=C(C)C(O2)C(C)=CCCCC(OC2CC(OC(N)=O)C(O)C(C)O2)C=CC(C)CC1C` (stereo not drawn) [ventA, venturicidin A], in assay [1] (ε88stop (Fig. 3A)), the Ki stood at 500 nM, the “ATPase at saturating ventA (y0)” value was 37% (± 3) and the “VentA-sensitive ATPase (y1)” value is 67% (± 4). Further, in assay [1] (setting [6]), the Ki is 90 nM, the “ATPase at saturating ventA (y0)” value is listed as 37% (± 2) and the “VentA-sensitive ATPase (y1)” value is 66% (± 4). Besides, the “Ki for early inhibition lower in presence of selenite than in its absence” value in assay [1] (ε88-stop membranes) is reported as “fivefold”. In assay [2], the “Inhibition of early ATPase rate” value is “up to 42%”. In assay [2] (best fit of early rates), the “ATPase remaining at saturating ventA” value is on record as 62% (± 2) and the “ventA-sensitive ATPase” value is recorded as 42% (± 3). For the same compound, in assay [2] (concentration-dependent), the “Late rate, recovery of activity as % of uninhibited rate” value was “up to 140%”. Also, the Ki in assay [2] (read-out: Ki (inhibition of early rate)) amounted to 1200 nM. In addition, the “Reduction of cellular ATP” value in assay [3] (16 μg ventA/ml) was ~ 40%. In assay [3] (MRSA strain tested further), the “Concentration at which maximal effect on Δψ was achieved” value is 16 μg ventA/ml. In assay [3] (fourfold greater ventA than 16 μg/ml), the “Reduction of cellular ATP” value is recorded as ~ 90%. Also, the Adjuvant action entry in assay [4] is “minimal adjuvant action”. In assay [5] (detergent-solubilized mitoFOF1), the “Stimulation of solubilized ATPase” value is “up to 3 fold”. For the same compound, the “Inhibition of membrane ATPase” value in assay [5] (mitoFOF1 in membranes) is on record as 95%.
